These results are taken from patent US9096624B2 (OSI Pharmaceuticals, LLC, priority 2009, dated 2015).

Each structure is given as a SMILES string. Several values for one entry are separate records, joined by “and”; a condition that tells them apart may be missing. Equal entries are not always repeated.

The target in test [1] is T1, FAK (Homo sapiens, UniProt Q05397). Kind of test: biochemical.
Test [2] concerns the target T1, FAK. Kind of test: Cell-based capture ELISA for inhibition of FAK autophosphorylation [pY397] in U87MG cells. On the technique in general: In an ELISA, binding on a coated surface is turned into a signal by an enzyme label.
Test [3] has as its target T1, FAK. Kind of test: Cell-based capture ELISA for inhibition of FAK autophosphorylation [pY397] in MiaPaCa2 cells. The following applies: MIA-PaCa2 cells, + 50% mouse plasma (Table 3); read-out: Mean FAK Cell Mechanistic IC50 + 50% mP MIA-PaCa2. As for the experimental part:
Cell-Based Assays for Inhibition of FAK Autophosphorylation: MiaPaCa2 and U87MG
ELISA kit from Invitrogen (KHO0441).
Reagents Provided in Biosource FAK [pY397]
The cells were then suspended in cell assay medium.

The mark [4] stands for this setting: Mean FAK Cell Mechanistic IC50 + 50% mP U87MG, + 50% mouse plasma.
[5] abbreviates: U87MG FAK Cell Mech IC50 +hP, + human plasma.
Setting [6] is: U87MG FAK Cell Mech IC50 +mP, + mouse plasma.

T1 sequence (Q05397 whole entry): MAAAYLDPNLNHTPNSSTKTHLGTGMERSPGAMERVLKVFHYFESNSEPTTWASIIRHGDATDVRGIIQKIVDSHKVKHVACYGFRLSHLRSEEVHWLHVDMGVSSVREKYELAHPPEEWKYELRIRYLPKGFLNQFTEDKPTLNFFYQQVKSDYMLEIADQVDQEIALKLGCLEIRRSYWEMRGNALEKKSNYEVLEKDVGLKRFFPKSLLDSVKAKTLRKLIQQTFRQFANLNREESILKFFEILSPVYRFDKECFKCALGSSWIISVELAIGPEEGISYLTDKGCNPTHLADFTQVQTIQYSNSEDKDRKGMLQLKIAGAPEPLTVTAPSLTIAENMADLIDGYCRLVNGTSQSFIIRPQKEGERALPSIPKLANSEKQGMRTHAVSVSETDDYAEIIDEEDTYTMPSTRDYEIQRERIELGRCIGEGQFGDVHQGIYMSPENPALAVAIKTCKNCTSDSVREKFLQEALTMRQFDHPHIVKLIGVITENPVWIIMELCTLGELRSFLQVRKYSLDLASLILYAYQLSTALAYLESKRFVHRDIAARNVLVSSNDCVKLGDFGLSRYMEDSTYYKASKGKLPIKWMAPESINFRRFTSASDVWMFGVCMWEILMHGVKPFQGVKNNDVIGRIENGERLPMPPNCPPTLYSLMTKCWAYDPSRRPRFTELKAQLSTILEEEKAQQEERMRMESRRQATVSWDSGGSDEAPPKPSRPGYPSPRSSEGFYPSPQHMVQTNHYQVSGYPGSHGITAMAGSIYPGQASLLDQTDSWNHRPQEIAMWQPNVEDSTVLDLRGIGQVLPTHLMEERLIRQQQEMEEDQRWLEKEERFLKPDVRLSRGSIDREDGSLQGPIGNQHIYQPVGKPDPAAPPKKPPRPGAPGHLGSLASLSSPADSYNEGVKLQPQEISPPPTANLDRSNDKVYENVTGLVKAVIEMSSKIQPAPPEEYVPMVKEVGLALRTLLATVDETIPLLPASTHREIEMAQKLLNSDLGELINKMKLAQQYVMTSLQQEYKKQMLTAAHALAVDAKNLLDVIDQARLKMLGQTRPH

A word on the IC50: it is the concentration that gives 50% inhibition. For the compound `CCOP(=O)(Cc1ccc(Nc2ncc(C(F)(F)F)c(Nc3ccc(C4CCC(O)(C(=O)O)CC4)c4c3C(=O)N(C)C4)n2)c(OC)c1)OCC` (single isomer, unassigned) [Example 278, 4-(7-{2-[4-(Diethoxy-phosphorylmethyl)-2-methoxy-phenylamino]-5-trifluoromethyl-pyrimidin-4-ylamino}-2-methyl-1-oxo-2,3-dihydro-1H-isoindol-4-yl)-1-hydroxy-cyclohexanecarboxylic acid], the IC50 against FAK [1] is less than 1000 nM; at FAK [2] (setting [4]) it was 1000 to 10000 nM.
In the case of `COc1cc(P(C)(C)=O)ccc1Nc1ncc(Cl)c(Nc2ccccc2C(=O)NC(C)C)n1` [Cpd A, reference compound], the IC50 was more than 4000 nM at FAK [2] (setting [5]); 3.69 µM and > 4 µM (3×) at FAK [2] (setting [6]).
For the compound `COc1cc(P(C)(C)=O)ccc1Nc1ncc(Cl)c(Nc2cccc3c2C(=O)N(C)C3)n1` [Cpd B, reference compound], the IC50 was more than 4000 nM at FAK [2] (setting [5]); 257 nM and 540 nM on FAK [2] (setting [6]).
For `CCOP(=O)(Cc1ccc(Nc2ncc(C(F)(F)F)c(Nc3c(F)cccc3C(=O)NC)n2)c(OC)c1)OCC` [Example 154, Diethyl (4-{[4-{[2-fluoro-6-(methylcarbamoyl)phenyl]amino}-5-(trifluoromethyl)pyrimidin-2-yl]amino}-3-methoxybenzyl)phosphonate], the IC50 at FAK [1] and on FAK [2] (setting [4]) was less than 1000 nM in each case.
On to `CCOP(=O)(Cc1ccc(Nc2ncc(C(F)(F)F)c(Nc3cccc(F)c3C(=O)NC)n2)c(OC)c1)OCC` [Example 155, diethyl (4-{[4-{[3-fluoro-2-(methylcarbamoyl)phenyl]amino}-5-(trifluoromethyl)pyrimidin-2-yl]amino}-3-methoxybenzyl)phosphonate], for which the IC50 at FAK [1] and at FAK [2] (setting [4]) was less than 1000 nM in each case.
`CCOP(=O)(Cc1ccc(Nc2ncc(C(F)(F)F)c(Nc3ccc([C@H]4CC[C@H](O)CC4)cc3C(=O)N(C)C)n2)c(OC)c1)OCC` [Example 195, diethyl (4-{[4-{[2-(dimethylcarbamoyl)-4-(trans-4-hydroxycyclohexyl)phenyl]amino}-5-(trifluoromethyl)pyrimidin-2-yl]amino}-3-methoxybenzyl)phosphonate]: the IC50 on FAK [1] is less than 1000 nM; on FAK [2] (setting [4]), 1000 to 10000 nM.
The matching figures for `CCOP(=O)(CC)Cc1ccc(Nc2ncc(C(F)(F)F)c(Nc3ccc([C@H]4CC[C@H](O)CC4)c4c3C(=O)N(C)C4)n2)cc1` (stereo partly drawn) [Example 202, Ethyl ethyl(4-{[4-{[7-(trans-4-hydroxycyclohexyl)-2-methyl-3-oxo-2,3-dihydro-1H-isoindol-4-yl]amino}-5-(trifluoromethyl)pyrimidin-2-yl]amino}benzyl)phosphinate]: less than 1000 nM and less than 1000 nM.
As to `CCOc1cc(CP(=O)(OCC)OCC)ccc1Nc1ncc(C(F)(F)F)c(Nc2ccc([C@H]3CC[C@@H](C(=O)OCC)CC3)c3c2C(=O)N(C)C3)n1` [Example 244, Ethyl cis-4-(7-{[2-({4-[(diethoxyphosphoryl)methyl]-2-ethoxyphenyl}amino)-5-(trifluoromethyl)pyrimidin-4-yl]amino}-2-methyl-1-oxo-2,3-dihydro-1H-isoindol-4-yl)cyclohexanecarboxylate], the IC50 on FAK [3] is 1000 to 10000 nM; against FAK [1], less than 1000 nM.
In the case of `CCOc1cc(CP(=O)(OCC)OCC)ccc1Nc1ncc(C(F)(F)F)c(Nc2ccc([C@H]3CC[C@H](C(=O)OCC)CC3)c3c2C(=O)N(C)C3)n1` [Example 245, Ethyl trans-4-(7-{[2-({4-[(diethoxyphosphoryl)methyl]-2-ethoxyphenyl}amino)-5-(trifluoromethyl)pyrimidin-4-yl]amino}-2-methyl-1-oxo-2,3-dihydro-1H-isoindol-4-yl)cyclohexanecarboxylate], the IC50 is 1000 to 10000 nM on FAK [3] and less than 1000 nM against FAK [1].
In the case of `CCOP(=O)(Cc1ccc(Nc2ncc(C(F)(F)F)c(Nc3ccc(C4CCNCC4)c4c3C(=O)N(C)C4)n2)cc1)OCC` [Example 247, Diethyl (4-{[4-{[2-methyl-3-oxo-7-(piperidin-4-yl)-2,3-dihydro-1H-isoindol-4-yl]amino}-5-(trifluoromethyl)pyrimidin-2-yl]amino}benzyl)phosphonate], the IC50 at FAK [3] and against FAK [1] was less than 1000 nM throughout.
In the case of `CCOP(=O)(Cc1ccc(Nc2ncc(Cl)c(Nc3ccc([C@H]4CC[C@H](O)CC4)c4c3C(=O)N(C)C4)n2)c(OC)c1)OCC` [Example 250, Diethyl {4-[(5-chloro-4-{[7-(trans-4-hydroxycyclohexyl)-2-methyl-3-oxo-2,3-dihydro-1H-isoindol-4-yl]amino}pyrimidin-2-yl)amino]-3-methoxybenzyl}phosphonate], the IC50 at FAK [3] and against FAK [1] was less than 1000 nM throughout.
In the case of `CCOP(=O)(Cc1ccc(Nc2ncc(C(F)(F)F)c(Nc3ccc(N4CCN(CC(=O)O)CC4)c4c3C(=O)N(C)C4)n2)cc1)OCC` [Example 251, [4-(7-{[2-({4-[(Diethoxyphosphoryl)methyl]phenyl}amino)-5-(trifluoromethyl)pyrimidin-4-yl]amino}-2-methyl-1-oxo-2,3-dihydro-1H-isoindol-4-yl)piperazin-1-yl]acetic acid], the IC50 at FAK [3] and at FAK [1] was less than 1000 nM throughout.
Consider `CCOP(=O)(Cc1ccc(Nc2ncc(C(F)(F)F)c(Nc3ccc(C4CCN(C)CC4)c4c3C(=O)N(C)C4)n2)cc1)OCC` [Example 253, Diethyl (4-{[4-{[2-methyl-7-(1-methylpiperidin-4-yl)-3-oxo-2,3-dihydro-1H-isoindol-4-yl]amino}-5-(trifluoromethyl)pyrimidin-2-yl]amino}benzyl)phosphonate], for which the IC50 on FAK [3] and on FAK [1] was less than 1000 nM in each case.
With `CCOP(=O)(Cc1ccc(Nc2ncc(C(F)(F)F)c(Nc3ccc(N4CCC(C(=O)O)CC4)c4c3C(=O)N(C)C4)n2)c(OC)c1)OCC` [Example 256, 1-(7-{[2-({4-[(Diethoxyphosphoryl)methyl]-2-methoxyphenyl}amino)-5-(trifluoromethyl)pyrimidin-4-yl]amino}-2-methyl-1-oxo-2,3-dihydro-1H-isoindol-4-yl)piperidine-4-carboxylic acid], the IC50 against FAK [1] and on FAK [2] (setting [4]) was less than 1000 nM throughout.
Consider `CCOc1cc(CP(=O)(OCC)OCC)ccc1Nc1ncc(C(F)(F)F)c(Nc2ccc([C@H]3CC[C@@H](C(=O)O)CC3)c3c2C(=O)N(C)C3)n1` [Example 257, cis-4-(7-{[2-({4-[(Diethoxyphosphoryl)methyl]-2-ethoxyphenyl}amino)-5-(trifluoromethyl)pyrimidin-4-yl]amino}-2-methyl-1-oxo-2,3-dihydro-1H-isoindol-4-yl)cyclohexanecarboxylic acid], for which the IC50 at FAK [3] and at FAK [1] was less than 1000 nM each time.
In the case of `CCOc1cc(CP(=O)(OCC)OCC)ccc1Nc1ncc(C(F)(F)F)c(Nc2ccc([C@H]3CC[C@H](C(=O)O)CC3)c3c2C(=O)N(C)C3)n1` [Example 258, Trans-4-(7-{[2-({4-[(diethoxyphosphoryl)methyl]-2-ethoxyphenyl}amino)-5-(trifluoromethyl)pyrimidin-4-yl]amino}-2-methyl-1-oxo-2,3-dihydro-1H-isoindol-4-yl)cyclohexanecarboxylic acid], the 50% inhibitory concentration (IC50) on FAK [3] and on FAK [1] was less than 1000 nM each time.
For `CCOP(=O)(Cc1ccc(Nc2ncc(C(F)(F)F)c(Nc3ccccc3C(=O)NOC)n2)c(OC)c1)OCC` [Example 259, Diethyl (3-methoxy-4-{[4-{[2-(methoxycarbamoyl)phenyl]amino}-5-(trifluoromethyl)pyrimidin-2-yl]amino}benzyl)phosphonate], the IC50 against FAK [1] and on FAK [2] (setting [4]) was less than 1000 nM each time.
On to `CCOP(=O)(Cc1ccc(Nc2ncc(C(F)(F)F)c(Nc3ccc(C4=CCNCC4)c4c3C(=O)N(C)C4)n2)c(OC)c1)OCC` [Example 262, Diethyl (3-methoxy-4-{[4-{[2-methyl-3-oxo-7-(1,2,3,6-tetrahydropyridin-4-yl)-2,3-dihydro-1H-isoindol-4-yl]amino}-5-(trifluoromethyl)pyrimidin-2-yl]amino}benzyl)phosphonate], for which the concentration for half-maximal inhibition (IC50) on FAK [1] and at FAK [2] (setting [4]) was less than 1000 nM throughout.
`CCOP(=O)(Cc1ccc(Nc2ncc(C(F)(F)F)c(Nc3ccc(C4CCNCC4)c4c3C(=O)N(C)C4)n2)c(OC)c1)OCC` [Example 263, Diethyl (3-methoxy-4-{[4-{[2-methyl-3-oxo-7-(piperidin-4-yl)-2,3-dihydro-1H-isoindol-4-yl]amino}-5-(trifluoromethyl)pyrimidin-2-yl]amino}benzyl)phosphonate]: the IC50 against FAK [1] and at FAK [2] (setting [4]) was less than 1000 nM throughout.
Regarding `CCOP(=O)(Cc1ccc(Nc2ncc(C(F)(F)F)c(Nc3ccc(C4=CCN(C)CC4)c4c3C(=O)N(C)C4)n2)c(OC)c1)OCC` [Example 264, Diethyl (3-methoxy-4-{[4-{[2-methyl-7-(1-methyl-1,2,3,6-tetrahydropyridin-4-yl)-3-oxo-2,3-dihydro-1H-isoindol-4-yl]amino}-5-(trifluoromethyl)pyrimidin-2-yl]amino}benzyl)phosphonate], the IC50 against FAK [1] and on FAK [2] (setting [4]) was less than 1000 nM throughout.
For `CCOP(=O)(Cc1ccc(Nc2ncc(C(F)(F)F)c(Nc3ccccc3C(=O)O)n2)c(OC)c1)OCC` [Example 290, 2-{[2-({4-[(Diethoxyphosphoryl)methyl]-2-methoxyphenyl}amino)-5-(trifluoromethyl)pyrimidin-4-yl]amino}benzoic acid], on FAK [2] (setting [4]), the concentration for half-maximal inhibition (IC50) was 1000 to 10000 nM.
